From ChEMBL document CHEMBL4219068 (Bioorg Med Chem, 2018)
Each block holds one compound with its values, some of them ahead of it. Calls of active or inactive are those of the source. No cut-off for these calls is given here.

Legend:
[1] = Drug level in pH 7.4 PBS at 50 uM measured after 2 hrs by HPLC analysis; format: physicochemical; conditions: buffer, pH 7.4, 2 h
[2] = Drug level in pH 7.4 PBS treated with apomorphine at 8 uM measured immediately by HPLC analysis; format: physicochemical; conditions: buffer, pH 7.4, 8 µM
[3] = Drug level in pH 7.4 PBS treated with apomorphine at 50 uM measured after 8 hrs by HPLC analysis; format: physicochemical; conditions: buffer, pH 7.4, 8 h
[4] = Drug level in pH 7.4 PBS at 50 uM measured after 24 hrs by HPLC analysis; format: physicochemical; conditions: buffer, pH 7.4, 24 h
[5] = Drug level in pH 7.4 PBS at 50 uM measured after 48 hrs by HPLC analysis; format: physicochemical; conditions: buffer, pH 7.4, 48 h
[6] = Drug level in pH 7.4 PBS treated with apomorphine at 50 uM up to 8 hrs by UV-Visible spectroscopic analysis; format: physicochemical; conditions: buffer, pH 7.4, 8 h
[7] = biological target: Amyloid-beta precursor protein (Homo sapiens) (UniProt P05067); experiment: Inhibition of amyloid beta (1 to 42) (unknown origin) aggregation at 5 uM by Thioflavin-T fluorescence assay; conditions: TDE = time-dependent effect
Amyloid-beta precursor protein (Homo sapiens), sequence (P05067 whole entry): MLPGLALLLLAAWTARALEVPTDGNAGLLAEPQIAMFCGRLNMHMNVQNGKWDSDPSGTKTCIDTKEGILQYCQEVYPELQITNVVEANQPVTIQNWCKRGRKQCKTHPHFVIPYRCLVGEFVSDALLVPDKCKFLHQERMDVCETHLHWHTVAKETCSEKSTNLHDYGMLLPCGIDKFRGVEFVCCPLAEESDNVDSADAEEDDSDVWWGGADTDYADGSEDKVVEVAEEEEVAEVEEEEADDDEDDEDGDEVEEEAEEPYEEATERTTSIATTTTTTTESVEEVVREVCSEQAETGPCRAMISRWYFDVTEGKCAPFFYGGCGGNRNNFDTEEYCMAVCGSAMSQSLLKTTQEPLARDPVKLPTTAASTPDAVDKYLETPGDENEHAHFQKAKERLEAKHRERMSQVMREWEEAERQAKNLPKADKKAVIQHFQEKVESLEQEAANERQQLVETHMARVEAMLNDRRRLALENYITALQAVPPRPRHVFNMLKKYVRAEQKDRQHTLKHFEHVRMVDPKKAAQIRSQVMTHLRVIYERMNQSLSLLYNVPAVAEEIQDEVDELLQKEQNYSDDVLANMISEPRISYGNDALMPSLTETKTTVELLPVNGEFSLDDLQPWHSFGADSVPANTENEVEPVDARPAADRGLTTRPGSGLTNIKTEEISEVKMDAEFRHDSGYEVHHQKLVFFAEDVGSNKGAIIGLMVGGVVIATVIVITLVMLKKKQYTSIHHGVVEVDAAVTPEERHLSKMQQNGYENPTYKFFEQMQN

[8] = Drug level in pH 7.4 PBS at 50 uM measured after 8 hrs by HPLC analysis; format: physicochemical; conditions: buffer, pH 7.4, 8 h
[9] = biological target: Amyloid-beta precursor protein (Homo sapiens) (UniProt P05067); experiment: Binding affinity to amyloid beta (1 to 42) (unknown origin) assessed as retention time for amyloid beta (1 to 42)-compound adduct formation at 250 uM after 1 hr by LC/Q Tof-MS analysis
[10] = Drug level in pH 7.4 PBS at 50 uM measured after 1 hr by HPLC analysis; format: physicochemical; conditions: buffer, pH 7.4, 1 h
[11] = biological target: Amyloid-beta precursor protein (Homo sapiens) (UniProt P05067); experiment: Inhibition of amyloid beta (1 to 42) (unknown origin) aggregation at 5 uM after 48 hrs by Thioflavin-T fluorescence assay relative to control
[12] = Drug level in pH 7.4 PBS at 50 uM measured after 4 hrs by HPLC analysis; format: physicochemical; conditions: buffer, pH 7.4, 4 h
[13] = Drug level in pH 7.4 PBS at 50 uM measured after 0 hrs by HPLC analysis; format: physicochemical; conditions: buffer, pH 7.4, 0 h
[14] = biological target: Amyloid-beta precursor protein (Homo sapiens) (UniProt P05067); experiment: Inhibition of HFIP pretreated amyloid beta (1 to 42) (unknown origin) aggregation assessed as time for nucleation phase of aggregation at 5 uM by Thioflavin-T fluorescence assay (reference value: 4 to 5 hrs)
[15] = biological target: Amyloid-beta precursor protein (Homo sapiens) (UniProt P05067); experiment: Inhibition of amyloid beta (1 to 42) (unknown origin)-mediated toxicity in human SH-SY5Y cells at 500 uM preincubated with amyloid beta (1 to 42) for 30 mins followed by addition to cells measured after 24 hrs by MTT assay; format: cell-based
[16] = Drug level in pH 7.4 PBS treated with apomorphine at 8 to 50 uM measured up to 24 hrs by HPLC analysis; format: physicochemical; conditions: buffer, pH 7.4, 24 h
[17] = biological target: Amyloid-beta precursor protein (Homo sapiens) (UniProt P05067); experiment: Inhibition of amyloid beta (1 to 42) (unknown origin) aggregation at 0.25 to 50 uM after 48 hrs by uranyl acetate staining based transmission electron microscopic method
[18] = Drug metabolism in pH 7.4 PBS assessed as auto-oxidization by measuring 6-methyl-5,6-dihydro-4H-dibenzo[de,g]quinoline-10,11-dione level at 50 uM measured after 8 hrs by HPLC analysis; format: physicochemical; conditions: buffer, pH 7.4, 8 h
[19] = Drug metabolism in pH 7.4 PBS assessed as auto-oxidization by measuring 6-methyl-5,6-dihydro-4H-dibenzo[de,g]quinoline-10,11-dione level at 50 uM measured after 24 hrs by HPLC analysis; format: physicochemical; conditions: buffer, pH 7.4, 24 h
[20] = biological target: Amyloid-beta precursor protein (Homo sapiens) (UniProt P05067); experiment: Binding affinity to amyloid beta (1 to 42) (unknown origin) assessed as retention time for amyloid beta (1 to 42) (Lys28)-compound adduct at 250 uM after 1 hr by LC/Q Tof-MS analysis
[21] = Drug metabolism in pH 7.4 PBS assessed as auto-oxidization by measuring 6-methyl-5,6-dihydro-4H-dibenzo[de,g]quinoline-10,11-dione level at 50 uM measured after 0 hrs by HPLC analysis; format: physicochemical; conditions: buffer, pH 7.4, 0 h
[22] = biological target: Amyloid-beta precursor protein (Homo sapiens) (UniProt P05067); experiment: Binding affinity to amyloid beta (9 to 35) E22P M35ox mutant (unknown origin) oxidized at M35 residue assessed as E22P M35ox(Lys16/Lys28)-compound adduct formation at 250 uM after 1 hr by LC/Q Tof-MS analysis
[23] = biological target: Amyloid-beta precursor protein (Homo sapiens) (UniProt P05067); experiment: Binding affinity to amyloid beta (1 to 42) (unknown origin) assessed as retention time for amyloid beta (1 to 42) - 6-methyl-5,6-dihydro-4H-dibenzo[de,g]quinoline-10,11-dione adduct at 250 uM after 1 hr by LC/Q Tof-MS analysis
[24] = biological target: Amyloid-beta precursor protein (Homo sapiens) (UniProt P05067); experiment: Binding affinity to amyloid beta (1 to 42) (unknown origin) assessed as retention time for amyloid beta (1 to 42) (Lys16)-compound adduct at 250 uM after 1 hr by LC/Q Tof-MS analysis
[25] = Drug metabolism in pH 7.4 PBS assessed as auto-oxidization by measuring 6-methyl-5,6-dihydro-4H-dibenzo[de,g]quinoline-10,11-dione level at 50 uM measured after 2 hrs by HPLC analysis; format: physicochemical; conditions: buffer, pH 7.4, 2 h
[26] = biological target: Amyloid-beta precursor protein (Homo sapiens) (UniProt P05067); experiment: Inhibition of amyloid beta (1 to 42) (unknown origin) aggregation at 5 uM in presence of reductant TCEP by Thioflavin-T fluorescence assay
[27] = Drug metabolism in pH 7.4 PBS assessed as auto-oxidization by measuring 6-methyl-5,6-dihydro-4H-dibenzo[de,g]quinoline-10,11-dione level at 50 uM measured after 1 hr by HPLC analysis; format: physicochemical; conditions: buffer, pH 7.4, 1 h
[28] = Drug metabolism in pH 7.4 PBS assessed as auto-oxidization by measuring 6-methyl-5,6-dihydro-4H-dibenzo[de,g]quinoline-10,11-dione level at 50 uM measured after 4 hrs by HPLC analysis; format: physicochemical; conditions: buffer, pH 7.4, 4 h
[29] = biological target: Amyloid-beta precursor protein (Homo sapiens) (UniProt P05067); experiment: Inhibition of amyloid beta (1 to 42) (unknown origin) aggregation by Thioflavin-T fluorescence assay

- Drug uptake [1]: 22 µM
- Drug metabolism [2]: Metabolite_Detected
- Drug metabolism [3]: Metabolite_Detected
- Drug uptake [4]: 19 µM
- Drug uptake [5]: 15 µM
- Drug metabolism [6]: Metabolite_Detected
- inhibition [7]: Tde
- Drug uptake [8]: 24 µM
- Activity [9]: inactive
- Drug uptake [10]: 24 µM
- inhibition [11]: > 50%
- Drug uptake [12]: 24 µM
- Drug uptake [13]: 31 µM
- TIME [14]: 6 to 7 h
SMILES: CN1CCc2cccc3c4c(cc1c23)C=CC(=O)C4=O
- inhibition [15]: inactive

- Drug metabolism [16]: Metabolite_Detected
SMILES: CNCCc1cccc2c3c(ccc12)C=CC(=O)C3=O

- Drug metabolism [16]: Metabolite_Detected
SMILES: CN1CCc2cccc3c2C1=CC(=O)C3=O

- inhibition [17]: Active
- Drug metabolism [18]: 50 µM
- Drug metabolism [19]: 25 µM
- Retention time [20]: 6.9 min
- Drug metabolism [21]: 8 µM
- inhibition [7]: Tde
- Activity [22]: Active
- Activity [23]: Active
- Retention time [24]: 6.4 min
- Drug metabolism [25]: 32 µM
- inhibition [11]: > 50%
- inhibition [26]: inactive
- Drug metabolism [27]: 23 µM
- Drug metabolism [28]: 47 µM
- inhibition [29]: Dose-dependent effect
- TIME [14]: 6 to 7 h
SMILES: CN1CCc2cccc3c2[C@H]1Cc1ccc(O)c(O)c1-3 [APOMORPHINE]
- inhibition [15]: inactive
